Data: US20230167073A1 (Teijin Pharma Limited, priority 2020, published 2023)

Biological target: T1, Human TRPC6 (Homo sapiens, UniProt Q9Y210)
T1 construct: expressed in transfected cells
T1 sequence (Q9Y210 1-931): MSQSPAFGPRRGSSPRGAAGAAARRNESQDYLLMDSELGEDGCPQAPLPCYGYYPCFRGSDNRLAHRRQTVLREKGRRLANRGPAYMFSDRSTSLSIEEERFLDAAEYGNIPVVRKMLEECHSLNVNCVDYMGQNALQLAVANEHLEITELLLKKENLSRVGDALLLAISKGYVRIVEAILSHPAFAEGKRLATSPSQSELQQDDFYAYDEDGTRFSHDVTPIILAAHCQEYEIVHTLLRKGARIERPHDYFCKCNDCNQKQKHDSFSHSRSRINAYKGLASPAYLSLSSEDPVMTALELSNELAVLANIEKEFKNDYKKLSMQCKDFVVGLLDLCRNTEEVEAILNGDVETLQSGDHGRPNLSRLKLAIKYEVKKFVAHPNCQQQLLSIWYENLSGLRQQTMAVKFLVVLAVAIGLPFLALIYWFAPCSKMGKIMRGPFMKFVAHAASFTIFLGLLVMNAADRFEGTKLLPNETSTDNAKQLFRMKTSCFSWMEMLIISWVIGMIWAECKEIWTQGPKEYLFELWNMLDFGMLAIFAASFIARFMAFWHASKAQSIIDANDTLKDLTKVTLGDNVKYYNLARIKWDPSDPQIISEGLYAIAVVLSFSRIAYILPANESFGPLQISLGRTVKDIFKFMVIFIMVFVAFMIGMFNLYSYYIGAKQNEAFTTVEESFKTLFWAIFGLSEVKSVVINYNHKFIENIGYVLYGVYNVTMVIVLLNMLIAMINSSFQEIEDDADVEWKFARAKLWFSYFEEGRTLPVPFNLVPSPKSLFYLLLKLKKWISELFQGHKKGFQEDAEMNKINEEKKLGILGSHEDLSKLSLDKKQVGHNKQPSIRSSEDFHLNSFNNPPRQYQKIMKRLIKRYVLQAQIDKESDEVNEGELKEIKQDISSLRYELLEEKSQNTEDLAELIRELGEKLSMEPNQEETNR
Experiment: Evaluation of TRPC6 channel inhibitory activity (1), FLIPR Calcium 5 Assay Kit, OAG stimulation (Compound Nos. 1-1293)
Assay type: cell-based
Details: Human TRPC6 stably-expressing cells, OAG 30 μM, FLIPR Calcium 5 Assay Kit; read-out: Inhibitory activity (pIC50 class) (converted)
Procedure, shortened: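 Calcium influx read by FLIPR fluorescence in cells stably expressing human TRPC6, dye-loaded 30 min. Compounds preincubated 20 min, then OAG stimulation at 30 μM final. Inhibition fitted by four-parameter logistic regression to give pIC50, reported as +/++/+++ categories.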

Row | SMILES | IC50
1 | Cn1nc(-c2ccccc2)cc1Oc1cc(C#N)ccc1-c1cnc(CN)cn1 [Compound 290, 4-[5-(aminomethyl)pyrazin-2-yl]-3-(2-methyl-5-phenylpyrazol-3-yl)oxybenzonitrile] | 10 to 1000 nM
2 | Cn1nc(N2CCCCC2)cc1Oc1cc(C#N)ccc1-c1ccc(CN)cn1 [compound 621, 4-[5-(aminomethyl)pyridin-2-yl]-3-(2-methyl-5-piperidin-1-ylpyrazol-3-yl)oxybenzonitrile] | < 10 nM
3 | Cn1nc(C(F)(F)F)cc1Oc1cc(C#N)ccc1-c1ccc(CCN)cn1 [Compound 264, 4-[5-(2-aminoethyl)pyridin-2-yl]-3-[2-methyl-5-(trifluoromethyl)pyrazol-3-yl]oxybenzonitrile] | < 10 nM
4 | N#Cc1ccc(-c2ccc(CN)cc2)c(Nc2cc(-c3ccccc3)ncn2)c1 [Compound 1, 4-[4-(aminomethyl)phenyl]-3-[(6-phenylpyrimidin-4-yl)amino]benzonitrile] | 10 to 1000 nM
5 | Cn1nc(C2CC2)cc1Oc1cc(C#N)ccc1-c1cccc(N)n1 [compound 451, 4-(6-aminopyridin-2-yl)-3-(5-cyclopropyl-2-methylpyrazol-3-yl)oxybenzonitrile] | > 1000 nM
6 | Cc1nc(Oc2cc(C#N)ccc2-c2cnc(N)nc2)cc(N2CCOCC2)n1 [Compound 14, 4-(2-aminopyrimidin-5-yl)-3-(2-methyl-6-morpholin-4-ylpyrimidin-4-yl)oxybenzonitrile] | > 1000 nM
7 | CCCCOc1cc(Oc2cc(C#N)ccc2-c2ccc(CCN)cc2)nc(C)n1 [Compound 38, 4-[4-(2-aminoethyl)phenyl]-3-(6-butoxy-2-methylpyrimidin-4-yl)oxybenzonitrile] | > 1000 nM
8 | Cc1nc(Oc2cc(C#N)ccc2-n2cc([C@@H](O)CN)cn2)cc(OC2CCCCC2)n1 [Compound 266, 4-[4-[(1R)-2-amino-1-hydroxyethyl]pyrazol-1-yl]-3-(6-cyclohexyloxy-2-methylpyrimidin-4-yl)oxybenzonitrile] | < 10 nM
9 | Cn1nc(C(C)(C)C)cc1C(OCC#N)c1cc(C#N)ccc1-c1ncc(CCN)cn1 (centres unmarked) [Compound No. 1237, 4-[5-(2-Aminoethyl)pyrimidin-2-yl]-3-[(5-tert-butyl-2-methylpyrazol-3-yl)-(cyanomethoxy)methyl]benzonitrile] | < 10 nM
10 | N#Cc1ccc(-n2cc(CCN)cn2)c(Oc2cnnc(N3CCCCC3)c2)c1 [Compound 283, 4-[4-(2-aminoethyl)pyrazol-1-yl]-3-(6-piperidin-1-ylpyridazin-4-yl)oxybenzonitrile] | 10 to 1000 nM
11 | N#Cc1ccc(-c2ccc(C(O)CN)cc2)c(Oc2cnnc(N3CCOCC3)c2)c1 (centres unmarked) [Compound 51, 4-[4-(2-amino-1-hydroxyethyl)phenyl]-3-(6-morpholin-4-ylpyridazin-4-yl)oxybenzonitrile] | > 1000 nM
12 | Cn1nc2c(c1Oc1cc(C#N)ccc1-c1cc(CCN)ccn1)CCC2 [compound 683, 4-[4-(2-aminoethyl)pyridin-2-yl]-3-[(2-methyl-5,6-dihydro-4H-cyclopenta[c]pyrazol-3-yl)oxy]benzonitrile] | > 1000 nM
13 | N#Cc1ccc(-c2ccc(CCN)nc2)c(Oc2cnnc(N3CCOCC3)c2)c1 [Compound 77, 4-[6-(2-aminoethyl)pyridin-3-yl]-3-(6-morpholin-4-ylpyridazin-4-yl)oxybenzonitrile] | > 1000 nM
14 | Cc1cc(Oc2cc(C#N)ccc2-c2ncc(CC(C)(C)N)cn2)cc(N2CCOCC2)n1 [compound 476, 4-[5-(2-amino-2-methylpropyl)pyrimidin-2-yl]-3-(2-methyl-6-morpholin-4-ylpyridin-4-yl)oxybenzonitrile] | 10 to 1000 nM
15 | Cc1cc(Oc2cc(C#N)ccc2-c2ncc(CCN)cn2)cc(NC(C)C)n1 [compound 461, 4-[5-(2-aminoethyl)pyrimidin-2-yl]-3-[2-methyl-6-(propan-2-ylamino)pyridin-4-yl]oxybenzonitrile] | < 10 nM
16 | Cc1nc(Oc2cc(C#N)ccc2-c2csc(C(O)CN)n2)cc(N2CCOCC2)n1 (centres unmarked) [Compound 168, 4-[2-(2-amino-1-hydroxyethyl)-1,3-thiazol-4-yl]-3-(2-methyl-6-morpholin-4-ylpyrimidin-4-yl)oxybenzonitrile] | 10 to 1000 nM
17 | Cn1nc(-c2ccc(F)cc2)cc1Oc1cc(C#N)ccc1-c1ccc(C(O)CN)cc1 (centres unmarked) [Compound 183, 4-[4-(2-amino-1-hydroxyethyl)phenyl]-3-[5-(4-fluorophenyl)-2-methylpyrazol-3-yl]oxybenzonitrile] | < 10 nM

Other lines, results leading:

Row | IC50 | SMILES
18 | < 10 nM | Cc1nc(Oc2cc(C#N)ccc2-c2ncc(CCN)cn2)cc(N(C)C(C)C)n1 [compound 857, 4-[5-(2-aminoethyl)pyrimidin-2-yl]-3-[2-methyl-6-[methyl(propan-2-yl)amino]pyrimidin-4-yl]oxybenzonitrile]
19 | > 1000 nM | Cn1nc(-c2ccccn2)cc1Oc1nc(C#N)ccc1-c1ncc(CN)cn1 [compound 1283, 5-[5-(aminomethyl)pyrimidin-2-yl]-6-(2-methyl-5-pyridin-2-ylpyrazol-3-yl)oxypyridine-2-carbonitrile]
20 | 10 to 1000 nM | Cn1nc(-c2cccnn2)cc1Oc1cc(C#N)ccc1-c1ncc(CN)cn1 [compound 934, 4-[5-(aminomethyl)pyrimidin-2-yl]-3-(2-methyl-5-pyridazin-3-ylpyrazol-3-yl)oxybenzonitrile]
21 | 10 to 1000 nM | Cn1nc(C(F)F)cc1Oc1cc(C#N)ccc1-c1ncc(CN)cn1 [compound 829, 4-[5-(aminomethyl)pyrimidin-2-yl]-3-[5-(difluoromethyl)-2-methylpyrazol-3-yl]oxybenzonitrile]
22 | 10 to 1000 nM | Cn1nc(-c2ccccc2)cc1Oc1cc(C#N)ncc1-c1ccc(CN)cn1 [compound 1278, 5-[5-(aminomethyl)pyridin-2-yl]-4-(2-methyl-5-phenylpyrazol-3-yl)oxypyridine-2-carbonitrile]
23 | > 1000 nM | NCCc1cnc(-c2ccc(F)cc2Cc2cnn(-c3ccccn3)c2)nc1 [compound 1220, 2-[2-[4-fluoro-2-[(1-pyridin-2-ylpyrazol-4-yl)methyl]phenyl]pyrimidin-5-yl]ethanamine]
24 | < 10 nM | Cn1nc(C2CC2)cc1Oc1cc(F)ccc1-c1ccc(CCN)cn1 [compound 1018, 2-[6-[2-(5-cyclopropyl-2-methylpyrazol-3-yl)oxy-4-fluorophenyl]pyridin-3-yl]ethanamine]
25 | 10 to 1000 nM | N#Cc1ccc(-c2ccc(CCN)cc2)c(C(O)c2cc(-c3ccccc3)no2)c1 (centres unmarked) [compound 1229, 4-[4-(2-aminoethyl)phenyl]-3-[hydroxy-(3-phenyl-1,2-oxazol-5-yl)methyl]benzonitrile]
26 | 10 to 1000 nM | CCN(C)c1cc(Oc2cc(C#N)ccc2-c2ncc(CN)cn2)nc(C)n1 [compound 790, 4-[5-(aminomethyl)pyrimidin-2-yl]-3-[6-[ethyl(methyl)amino]-2-methylpyrimidin-4-yl]oxybenzonitrile]
27 | 10 to 1000 nM | Cn1nc(C2CC2)cc1Oc1nc(C#N)ccc1-c1ncc(CCN)cn1 [compound 1281, 5-[5-(2-aminoethyl)pyrimidin-2-yl]-6-(5-cyclopropyl-2-methylpyrazol-3-yl)oxypyridine-2-carbonitrile]
28 | 10 to 1000 nM | N#Cc1ccc(-c2ncc(CN)cn2)c(Oc2nnc(-c3ccccc3)s2)c1 [compound 705, 4-[5-(aminomethyl)pyrimidin-2-yl]-3-[(5-phenyl-1,3,4-thiadiazol-2-yl)oxy]benzonitrile]
29 | 10 to 1000 nM | Cn1nc(N2CCCC2)cc1Oc1cc(C#N)ccc1-c1ccc(CC2(N)COC2)cn1 [compound 741, 4-[5-[(3-aminooxetan-3-yl)methyl]pyridin-2-yl]-3-(2-methyl-5-pyrrolidin-1-ylpyrazol-3-yl)oxybenzonitrile]
30 | < 10 nM | Cn1nc(C(F)F)cc1Oc1cc(C#N)ccc1-c1ccc(CN)cn1 [compound 828, 4-[5-(aminomethyl)pyridin-2-yl]-3-[5-(difluoromethyl)-2-methylpyrazol-3-yl]oxybenzonitrile]
31 | 10 to 1000 nM | N#Cc1ccc(-n2cc(CCN)cn2)c(Sc2cnnc(N3CCOCC3)c2)c1 [compound 1245, 4-[4-(2-aminoethyl)pyrazol-1-yl]-3-(6-morpholin-4-ylpyridazin-4-yl)sulfanylbenzonitrile]
32 | > 1000 nM | Cc1nc(Oc2cc(C#N)ccc2-n2ncc3c2CCNC3)cc(N2CCCCC2)n1 [compound 745, 3-(2-methyl-6-piperidin-1-ylpyrimidin-4-yl)oxy-4-(4,5,6,7-tetrahydropyrazolo[4,3-c]pyridin-1-yl)benzonitrile]
